For assay [1], the target named is T1, 5-HT1A serotonin receptor (Rattus norvegicus, UniProt P19327).
T1 construct: following the procedure of Hall et al., J. Neurochem; 44, 1685 (1985); from tissue
T1 sequence (P19327 1-422): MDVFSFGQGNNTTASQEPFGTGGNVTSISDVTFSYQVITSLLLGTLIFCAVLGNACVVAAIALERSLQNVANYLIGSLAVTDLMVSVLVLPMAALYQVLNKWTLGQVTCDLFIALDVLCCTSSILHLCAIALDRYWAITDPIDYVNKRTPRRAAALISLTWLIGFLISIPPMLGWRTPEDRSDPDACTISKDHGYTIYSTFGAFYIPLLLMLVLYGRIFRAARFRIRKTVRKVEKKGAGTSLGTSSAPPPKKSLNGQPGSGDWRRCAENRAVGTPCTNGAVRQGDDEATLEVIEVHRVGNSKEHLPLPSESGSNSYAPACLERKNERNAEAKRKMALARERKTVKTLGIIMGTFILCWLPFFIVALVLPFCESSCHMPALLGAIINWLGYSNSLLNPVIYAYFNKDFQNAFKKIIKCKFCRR
The assay is described as follows: displacement of [^3 H] 8-OHDPAT (dipropylaminotetralin) from the 5-HT1A serotonin receptor (Hall et al., J. Neurochem. 44, 1685 (1985)). To be noted: read-out: 5-HT1A Binding (IC50). Here is the method:
Representative compounds of the present invention were evaluated and determined to have high affinity for the serotonin 5-HT1A receptor by testing the compound's ability to displace [^3 H] 8-OHDPAT (dipropylaminotetralin) from the 5-HT1A serotonin receptor following the procedure of Hall et al., J. Neurochem. 44, 1685 (1985). […] The anxiolytic activity of buspirone is believed to be, at least partially, due to its 5-HT1A receptor affinity (Vander Maclen et al., Eur. J. Pharmacol. 1986,129 (1-2)[…]).

Assay [2] has as its system 5-HT1A serotonin receptor subtype. To be noted: buspirone as standard for anxiolytic activity; cited from earlier work.

Consider five molecules from patent US6110943A, “N-substituted (thiophen-2-yl)-piperidines and tetrahydropyridines as serotonergic agents” (American Home Products Corporation, priority 1999, dated 2000).

Broadly, the IC50 is the concentration that inhibits the measured activity by half.

For the molecule `COc1ccsc1C1(O)CCN(C[C@H](Cc2ccccc2)NC(=O)OC(C)(C)C)CC1` [Example 1, (S)-{1-Benzyl-2-[4-hydroxy-4-(3-methoxy-thiophen-2-yl)-piperidin-1-yl]-ethyl}-carbamic acid tert-butyl ester], the IC50 in assay [1] is 80 nM.
Still for that read-out and setting: with `COc1ccsc1C1CCN(C[C@H](Cc2ccccc2)NC(=O)C2CCCCC2)CC1` [Example 4, Cyclohexanecarboxylic acid {(1S)-1-benzyl-2-[4-(3-methoxy-thiophen-2-yl)-piperidin-1-yl]-ethyl}-amide] the figure was 1.1 nM; with `COc1ccsc1C1=CCN(C[C@H](Cc2ccccc2)NC(=O)OC(C)(C)C)CC1` [Example 2, (S)-{1-Benzyl-2-[4-(3-methoxy-thiophen-2-yl)-3,6-dihydro-2H-pyridin-1-yl]-ethyl}-carbamic acid tert-butyl ester], 1.6 nM.
On the same count and under the same terms, with `COc1ccsc1C1=CCN(C[C@H](Cc2ccccc2)NC(=O)C2CCCCC2)CC1` [Example 3, (S)-cyclohexanecarboxylic acid {1-benzyl-2-[4-(3-methoxy-thiophen-2-yl)-3,6-dihydro-2H-pyridin-1-yl]-ethyl}-amide] the figure was 0.78 nM.
Consider `O=C1CC2(CCCC2)CC(=O)N1CCCCN1CCN(c2ncccn2)CC1` [buspirone], for which the “5-HT1A receptor affinity (in words)” value in assay [2] is “potent affinity”.
